The values that follow come from patent US7820078B2, “Layer configuration with improved stability to sunlight exposure” (Agfa Graphics, N.V., priority 2007, dated 2010).

The conditions of data set [1]: cited from earlier work.

The pKa is the pH at which an ionisable group is half protonated. As to `CC(C)N` [isopropylamine], in data set [1], the pKa is recorded as 10.63.

For `c1ccc2cnccc2c1` [isoquinoline], the pKa in data set [1] was 5.2.

For the molecule `Sc1nnnn1-c1ccccc1` [1-phenyl-5-mercaptotetrazole], in data set [1], the pKa was 2.30.

On to `Cc1nc2ccccc2[nH]1` [2-methylbenzimidazole], for which, in data set [1], the pKa was 6.96.

For `c1cn[nH]c1` [pyrazole], in data set [1], the pKa is listed as 2.53.

As usually defined, the melting point is the temperature, or range, at which the solid turns liquid. `Oc1ccc2ccccc2c1O` registered a melting point of 101 to 103 °C.
